Source: patent US4165371A, “1,2,3,4,5,6-Hexahydro-1,6-methano-3-benzazocines” (priority 1976, dated 1979)

Columns and labels:
[1] = type: in vivo; settings: mouse hot plate, intravenous; for ED50: range in parentheses
Protocol: (c) The presence of certain N-substituents would confer antagonist activity on members of this new ring system, Tests for analgesic activity were conducted using intravenous administration in the reliable Eddy mouse hot plate assay described in J. Pharmacol. Exp. Ther. […] (1953). The results are set forth in Table 1, together with the activities of morphine and codeine reported as evaluation standards.

[2] = system: monkeys, physically dependent on morphine; assay: Physical dependence liability: Single Dose Suppression (SDS) in withdrawn morphine-dependent monkeys; type: in vivo, monkey; settings: 2 monkeys
Protocol: (§1) Physical Dependence Liability testing was conducted on Compounds A, B, C and F of Table 1. For determining Single Dose Suppression (SDS) data monkeys, physically dependent on 3.0 mg/kg of morphine sulfte q6H, were withdrawn until abstinence signs of intermediate severity were present (12-14 hours). The coded drug was injected at this time by persons other than the observer. The monkeys were graded just prior to injection and at intervals of 1/2, 1, 2, 3, 4, 5 and 6 hours after injection. Grades were based on withdrawal intensity or opiate-like depression and side effects, if present. The results are shown in Tables 2 through 5 together with evaluations thereof by Dr. Henry H. Swain at the University of Michigan. Dosages are in mg/kg.

[3] = system: Non-withdrawn, morphine dependent monkeys; assay: Attempted precipitation of abstinence in non-withdrawn, morphine-dependent monkeys (NW); type: in vivo, monkey; settings: for Effects, precipitation of abstinence signs (NW): 2 monkeys
[4] = system: Normal monkeys (not dependent on morphine); assay: Normal monkeys (not dependent on morphine): attempt to elicit the narcotic syndrome; type: in vivo, monkey
[5] = system: morphine dependent monkeys; assay: Physical dependence liability testing, overall evaluation; type: in vivo, monkey; settings: for Estimated Physical Dependence Capacity: at doses tested
Protocol: as §1

c1ccc(CCN2CCC3CC(C2)c2ccccc23)cc1 (centres unmarked)
duration [1]: 123 min | onset [1]: 4.7 min | peak [1]: 25.6 min | ED50 [1]: 8.8 (6.2-12.5) mg/kg

CCCN1CCC2CC(C1)c1ccccc12 (centres unmarked)
duration [1]: 120 min | onset [1]: 3.6 min | peak [1]: 32.1 min | ED50 [1]: 16.2 (11.7-22.4) mg/kg

c1ccc2c(c1)C1CCNCC2C1 (centres unmarked) [A]
duration [1]: 97.5 min | onset [1]: 3.3 min | peak [1]: 18.0 min | ED50 [1]: 4.9 (3.6-6.5) mg/kg | Effects, Single Dose Suppression ([2]; 2.0 mg/kg): No apparent effect | morphine antagonism [3]: not morphine antagonists | precipitation of the morphine abstinence syndrome [3]: no such result was observed | narcotic signs [4]: no obvious narcotic signs were observed | Narcotic signs in normals ([4]; 8.0 mg/kg, 2 monkeys): No obvious narcotic signs | Estimated Physical Dependence Capacity [5]: Not morphine-like

CN1CCC2CC(C1)c1ccccc12 (centres unmarked) [B]
duration [1]: 104 min | onset [1]: 3.2 min | peak [1]: 20.3 min | ED50 [1]: 4.2 (2.6-6.7) mg/kg | Effects, Single Dose Suppression ([2]; 2.0 mg/kg): No apparent effect | Effects, Single Dose Suppression ([2]; 4.0 mg/kg): No obvious effect | morphine antagonism [3]: not morphine antagonists | precipitation of the morphine abstinence syndrome [3]: no such result was observed | Effects, precipitation of abstinence signs (NW) ([3]; 4.0 mg/kg): No obvious effect | Effects, precipitation of abstinence signs (NW) ([3]; 8.0 mg/kg): No obvious effect | narcotic signs [4]: no obvious narcotic signs were observed | Estimated Physical Dependence Capacity [5]: Little or none at doses tested

c1ccc2c(c1)C1CCN(CC3CC3)CC2C1 (centres unmarked) [C]
Effects, Single Dose Suppression ([2]; 5.0 mg/kg): No obvious effect | Effects, Single Dose Suppression ([2]; 10.0 mg/kg): No obvious effect | Estimated Physical Dependence Capacity [5]: None | Remarks: direct effects / convulsions ([5]; doses tested): The drug causes convulsions | Dose estimated to be equivalent to 3.0 mg/kg of morphine sulfate ([5]; evaluation in words): Not morphine-like

C=CCN1CCC2CC(C1)c1ccccc12 (centres unmarked) [F]
duration [1]: 119 min | onset [1]: 3.2 min | peak [1]: 16.3 min | ED50 [1]: 19.4 (13.1-28.7) mg/kg | Effects, Single Dose Suppression ([2]; 1.0 mg/kg): No apparent effect | Effects, Single Dose Suppression ([2]; 2.0 mg/kg): No apparent effect | Effects, Single Dose Suppression ([2]; 4.0 mg/kg): No apparent effect | Effects, Single Dose Suppression ([2]; 8.0 mg/kg): No apparent effect | Effects, Single Dose Suppression ([2]; 16.0 mg/kg): No obvious effect | Estimated Physical Dependence Capacity [5]: None

COc1ccc2c3c1O[C@H]1[C@@H](O)C=C[C@H]4[C@@H](C2)N(C)CC[C@@]341 [codeine, reference compound]
ED50 [1]: 7.5 (6.8-8.3) mg/kg

CN1CC[C@]23c4c5ccc(O)c4O[C@H]2[C@@H](O)C=C[C@H]3[C@H]1C5 [morphine, reference compound]
ED50 [1]: 1.2 (0.9-1.3) mg/kg
